Measured values published in ChEMBL document CHEMBL1275440, “In vitro activity of telavancin against resistant gram-positive bacteria” (2008).
In brackets after ≈: the same amount, converted by molar mass. Activity calls are given as the source filed them. The calls are words filed in the database; no cut-off is given here.

Assays:
Assay type in all cases: functional
Streptococcus pneumoniae [1] = test: Antibacterial activity against multidrug resistant Streptococcus pneumoniae MED 1090 assessed as bacterial count at 2 ug/ml after 24 hrs by time-kill assay
Streptococcus pyogenes [2] = test: Antibacterial activity against Streptococcus pyogenes MED 2040 assessed as bacterial count at […] after 24 hrs by time-kill assay
Staphylococcus aureus [3] = test: Antibacterial activity against methicillin resistant Staphylococcus aureus MED 2028 osteomyelitis isolate assessed as bacterial count at 2 ug/ml after 4 hrs by time-kill assay
Streptococcus pneumoniae [4] = test: Antibacterial activity against multidrug resistant Streptococcus pneumoniae MED 1090 assessed as bacterial count at 0.06 ug/ml after 24 hrs by time-kill assay
[5] = tested on: Streptococcus constellatus; test: Antibacterial activity against Streptococcus constellatus clinical isolate by broth microdilution method
Streptococcus agalactiae [6] = test: Antibacterial activity against Streptococcus agalactiae MED 2038 assessed as bacterial count at […] after 2 hrs by time-kill assay
Staphylococcus aureus [7] = test: Antibacterial activity against methicillin resistant Staphylococcus aureus MED 2028 osteomyelitis isolate assessed as bacterial count at 4 ug/ml after 24 hrs by time-kill assay
Streptococcus pneumoniae [8] = test: Antibacterial activity against multidrug resistant Streptococcus pneumoniae MED 1090 assessed as bacterial count at […] after 4 hrs by time-kill assay
Staphylococcus aureus [9] = test: Antibacterial activity against methicillin resistant Staphylococcus aureus MED 1805 bloodstream isolate assessed as bacterial count at 2 ug/ml after 24 hrs by time-kill assay
[10] = tested on: Streptococcus intermedius; test: Antibacterial activity against Streptococcus intermedius clinical isolate by broth microdilution method
Streptococcus agalactiae [11] = test: Antibacterial activity against Streptococcus agalactiae MED 2038 assessed as bacterial count at 8 ug/ml after 4 hrs by time-kill assay
[12] = tested on: Staphylococcus epidermidis; test: Antibacterial activity against methicillin resistant Staphylococcus epidermidis ATCC 35984 assessed as bacterial count at 8 ug/ml after 2 hrs by time-kill assay
[13] = tested on: Staphylococcus epidermidis; test: Antibacterial activity against methicillin resistant Staphylococcus epidermidis ATCC 35984 by broth microdilution method
Staphylococcus aureus [14] = test: Antibacterial activity against methicillin resistant Staphylococcus aureus MED 1805 bloodstream isolate assessed as bacterial count at 2 ug/ml after 8 hrs by time-kill assay
Staphylococcus aureus [15] = test: Antibacterial activity against methicillin resistant Staphylococcus aureus MED 2028 osteomyelitis isolate assessed as bacterial count at 16 ug/ml after 8 hrs by time-kill assay
Staphylococcus aureus [16] = test: Antibacterial activity against methicillin resistant Staphylococcus aureus MED 1805 bloodstream isolate assessed as bacterial count at 4 ug/ml after 24 hrs by time-kill assay
[17] = tested on: Staphylococcus epidermidis; test: Antibacterial activity against methicillin resistant Staphylococcus epidermidis ATCC 35984 assessed as bacterial count at 8 ug/ml after 4 hrs by time-kill assay
[18] = tested on: Staphylococcus epidermidis; test: Antibacterial activity against methicillin resistant Staphylococcus epidermidis ATCC 35984 assessed as bacterial count at 16 ug/ml after 4 hrs by time-kill assay
Enterococcus faecalis [19] = test: Antibacterial activity against Enterococcus faecalis ATCC 51575 by broth microdilution method
[20] = tested on: Staphylococcus epidermidis; test: Antibacterial activity against methicillin resistant Staphylococcus epidermidis ATCC 35984 assessed as bacterial count at 16 ug/ml after 2 hrs by time-kill assay
Streptococcus pyogenes [21] = test: Antibacterial activity against Streptococcus pyogenes MED 2040 assessed as bacterial count at […] after 4 hrs by time-kill assay
Staphylococcus aureus [22] = test: Antibacterial activity against methicillin resistant Staphylococcus aureus MED 1805 bloodstream isolate assessed as bacterial count at 2 ug/ml after 2 hrs by time-kill assay
Enterococcus faecalis [23] = test: Antibacterial activity against Enterococcus faecalis ATCC 51575 assessed as bacterial count at 2 ug/ml after 24 hrs by time-kill assay

CCCCCCCCCCNCCN[C@@]1(C)C[C@H](O[C@H]2[C@H](Oc3c4cc5cc3Oc3ccc(cc3Cl)[C@@H](O)[C@@H](NC(=O)[C@@H](CC(C)C)NC)C(=O)N[C@@H](CC(N)=O)C(=O)N[C@H]5C(=O)N[C@H]3C(=O)N[C@H](C(=O)N[C@H](C(=O)O)c5cc(O)c(CNCP(=O)(O)O)c(O)c5-c5cc3ccc5O)[C@H](O)c3ccc(c(Cl)c3)O4)O[C@H](CO)[C@@H](O)[C@@H]2O)O[C@@H](C)[C@H]1O [TELAVANCIN] showed a log10CFU/ml (Streptococcus pneumoniae [1]) of 3.4, a log10CFU/ml (Streptococcus pyogenes [2]) of 2.2 and a log10CFU/ml (Staphylococcus aureus [3]) of 1.6. The log10CFU/ml (Streptococcus pneumoniae [4]) was 3.4, the MIC [5] was 0.015 µg/mL (≈ 0.00854 µM) and the MIC50 [5] was “inactive”. For the same molecule, the MIC90 [5] was “inactive”, the log10CFU/ml (Streptococcus agalactiae [6]) was 1 and the log10CFU/ml (Staphylococcus aureus [7]) was 3.4. The log10CFU/ml (Streptococcus pneumoniae [8]) was 1.9, the log10CFU/ml (Staphylococcus aureus [9]) was 2.8 and the MIC [10] was 0.015 µg/mL (≈ 0.00854 µM). The MIC50 [10] was “inactive”, the MIC90 [10] was “inactive” and the log10CFU/ml (Streptococcus agalactiae [11]) was 0.9. The log10CFU/ml [12] was 0.5, the MIC [13] was 1 µg/mL (≈ 0.57 µM) and the log10CFU/ml (Staphylococcus aureus [14]) was 2.7. The log10CFU/ml (Staphylococcus aureus [15]) was 2.3, the log10CFU/ml (Staphylococcus aureus [16]) was 3.3 and the log10CFU/ml [17] was 2.7. The log10CFU/ml [18] was 3.2, the MIC (Enterococcus faecalis [19]) was 1 µg/mL (≈ 0.57 µM) and the log10CFU/ml [20] was 0.5. For the same molecule, the log10CFU/ml (Streptococcus pyogenes [21]) was 0.4, the log10CFU/ml (Staphylococcus aureus [22]) was 1 and the log10CFU/ml (Enterococcus faecalis [23]) was 0.8.
